From US20120208781A1, “AMINOGLYCOSIDE DOSING REGIMENS” (Achaogen, Inc., priority 2009, published 2012)
Values after ≈ are worked out from the molar mass of the structure shown. Read-outs that look alike come from different tables or passages of the source.

What was measured:
Enterobacter = assay: MIC, further Brooklyn patient isolates: Enterobacter; type: cell-based; parameters: unit not given beside the values; conditions: Enterobacter (n = 206)
Description: (§1) Minimum inhibitory concentrations (MIC) were determined by reference Clinical and Laboratory Standards Institute (CLSI) broth microdilution methods per M7-A7 [2006]. Briefly, serial two-fold dilutions of Compound 1 and comparator AGs (together, “the test compounds”) were prepared at 2× concentration in appropriate diluent. The dilutions were mixed in 96-well assay plates with bacterial inoculum. Bacteria were suspended in sterile saline and added to each assay plate to obtain a final concentration of 5.5×10^5 CFU/mL. The plates were incubated at 35° C. for 20 hours in ambient air. […] After incubation, assay plates were read using a microtiter plate reader at 600 nm.
(§2) Further studies analyzed a greater number of unique patient isolates obtained from Brooklyn, N.Y. hospitals (including those species described above). These species included Acinetobacter, E. coli, Enterobacter, Klebsiella, and Pseudomonas.

E. coli = assay: MIC, further Brooklyn patient isolates: E. coli; type: cell-based; parameters: unit not given beside the values; conditions: E. coli (n = 3071)
Description: as §1, §2

Klebsiella = assay: MIC, further Brooklyn patient isolates: Klebsiella; type: cell-based; parameters: unit not given beside the values; conditions: Klebsiella (n = 1151)
Description: as §1, §2

K. pneumoniae (KP) = assay: MIC, broth microdilution, Brooklyn hospital isolates: K. pneumoniae; type: cell-based; conditions: KP (n = 71)
Description: (§3) In another study, the activity of Compound 1 against a collection of contemporary Gram-negative bacteria was determined. Unique patient isolates of P. aeruginosa (PA), A. baumannii (AB), K. pneumoniae (KP), E. coli (EC), and Enterobacter spp. (EB) from prior surveys at 16 Brooklyn, N.Y. hospitals were selected based on resistance patterns. The majority of isolates were fingerprinted by automated ribotyping. MICs were performed by broth microdilution. PCR was used to identify aminoglycoside-modifying enzymes (AMEs) in AB and KP and the KPC gene in Enterobacteriaceae (EN). The expression of the efflux genes mexA, C, E and X in PA, and adeB in AB was assessed by real-time RT-PCR.

rat kidney [1] = assay: Rat nephrotoxicity model: serum markers of GFR (BUN, serum creatinine); type: in vivo, Sprague-Dawley rats; conditions: dose-response for BUN elevation
rat kidney [2] = assay: Rat nephrotoxicity model: kidney histopathology (H&E); type: in vivo, Sprague-Dawley rats; conditions: rats, 14 d once-daily
Description: This rat nephrotoxicity study design used 14 days of once-daily dosing of aminoglycosides in adult Sprague-Dawley rats. Rats were allowed full access to food and water, and aminoglycosides were dosed subcutaneously at 1 mL/kg dosing volume, formulated in water. Nephrotoxicity was assessed by monitoring changes in serum markers of glomerular filtration rate (GFR), namely blood urea nitrogen (BUN) and serum creatinine. Microscopic examination of kidney slices after fixation and hematoxylin and eosin (H&E) staining was also utilized, scoring for tubular dilation, cellular casts, interstitial inflammation, and regenerative changes to the tubules.

Enterobacter spp. (EB) = assay: MIC, broth microdilution, Brooklyn hospital isolates: Enterobacter spp.; type: cell-based; conditions: EB (n = 30)
Description: as §3

P. aeruginosa (PA) = assay: MIC, broth microdilution, Brooklyn hospital isolates: P. aeruginosa; type: cell-based; conditions: PA (n = 33)
Description: as §3

[3] = test system: Gram-negative and Gram-positive clinical isolates; assay: MIC, CLSI broth microdilution, 235 worldwide isolates (all); type: cell-based; conditions: 235 isolates
Text: In the first study, a total of 235 isolates were collected from medical centers worldwide and tested for susceptibility to Compound 1 and comparator agents by CLSI broth microdilution methods. […] Non-ENT GN pathogens included WT P. aeruginosa (PSA) and Acinetobacter spp. (ACB), and carbapenem (CARB)-R strains, including those with MBL and OXA enzymes, SA and coagulase-negative staphylococci (CoNS) included oxacillin-susceptible (MSSA/MS-CoNS) and —R (MRSA/MR-CoNS) strains.
as §1

E. coli (EC) = assay: MIC, broth microdilution, Brooklyn hospital isolates: E. coli; type: cell-based; conditions: EC (n = 32)
Description: as §3

hearing function = conditions: guinea pig, in vivo
Description: The ototoxicity of aminoglycosides was investigated in 28-day studies in guinea pigs (executed at MPI Research Inc., Mattawan, Mich.). […] Animals assigned to the study had body weights within ±20% of the mean body weight. The vehicle and positive control articles were administered daily for 14 days during the study via bolus subcutaneous injection in the scapular region on the back of each animal. The control group received the vehicle in the same manner as the treated groups. Individual doses were based on the most recent body weights. […] The dose levels for these studies were selected based upon published accounts of aminoglycoside ototoxicity in the guinea pig using similar dosing regimes (e.g., Brummett, A. R. et al., J. Antimicrob Chemother, 1978 May; 4 Suppl A:73-83; Kitasato, I. et al., Chemotherapy, 1990; 36(2):155-68). Doses were chosen to maximize exposure while avoiding significant nephrotoxicity, which would have confounded the analysis given that aminoglycosides are renally cleared.
Clinical observations were conducted predose (Day 1), immediately following the completion of each vehicle or positive control article administration on dosing days, and daily thereafter. Body weights were measured and recorded predose (Day 1) and daily thereafter. Physical examinations were conducted pretest and on Day 28.
Bilateral in-vivo electrophysiology (auditory brainstem response) examinations were conducted pretest and prior to the terminal necropsy. Hearing function changes were measured by comparing auditory brainstem response (ABR) values at the end of the study period versus pre-dosing values of each individual animal. […] Additional ketamine and xylazine were administered as necessary. […] Following ABR evaluations, yohimbine (1 mg/kg) was administered via intraperitoneal (IP) injection as a reversal agent. At study termination (Day 29), necropsy examinations were performed, and designated tissues were collected, examined and rated, and preserved for processing and histopathological evaluation, as described below.

cochlear hair cells = assay: Cytocochleogram analysis in 28-day guinea pig ototoxicity model; type: in vivo, guinea pigs; conditions: guinea pigs
Description: Following euthanasia and whole body intravascular perfusion with 4% paraformaldehyde, the temporal bones of the left and right ears were removed. Gross middle ear assessments were performed using a dissecting microscope. […] Following gross middle ear assessment, the cochleas of the left ear were fixed by intrascalar perfusion with 4% paraformaldehyde. Cochlea tissues of both ears were placed in 4% paraformaldehyde for approximately 1 hour. Tissues were then transferred to 0.5% paraformaldehyde, stored refrigerated, and shipped on gel packs to the Kresge Hearing Research Institute, Ann Arbor, Mich., for further processing and cytocochleogram analysis.
These guinea pig ototoxicity studies also included microscopic analysis of surgically dissected cochleas from each animal to assess hair cell damage (cytocochleograms). The underlying cause of aminoglycoside related hearing loss is damage to the hair cells of the auditory system after significant accumulation of aminoglycosides in the inner ear. In the cochlea, drug-induced hair cell loss typically progresses from the basal to the apical turns of the cochlea. Perception of high-frequency sounds, a function of the basal hair cells, is lost first; perception of low-frequency sounds, a function of the more apical hair cells, is the last to be lost (Selimoglu, E., Curr Pharm Des. 2007; 13(1):119-26). For obvious reasons, it is impractical to obtain cytocochleograms from each animal prior to dosing, and some hair cell loss is usually observed in control (vehicle dosed) animals in these guinea pig studies. This variability makes it difficult to determine whether hair cell loss observed post-treatment is due to the drug treatment, especially mild hair cell loss, […]

A. baumannii (AB) = assay: MIC, broth microdilution, Brooklyn hospital isolates: A. baumannii; type: cell-based; conditions: AB (n = 38)
Description: as §3

## C[C@@H](O)[C@H]1C(=O)N2C(C(=O)O)=C(S[C@@H]3CN[C@H](C(=O)N(C)C)C3)[C@H](C)[C@H]12 [MEM, meropenem]
Enterobacter
  MIC50: ≦0.125
E. coli
  MIC50: ≦0.125
  MIC90: ≦0.125
Klebsiella
  MIC50: ≦0.125

## NCC[C@H](O)C(=O)N[C@@H]1C[C@H](N)[C@@H](O[C@H]2O[C@H](CN)[C@@H](O)[C@H](O)[C@H]2O)[C@H](O)[C@H]1O[C@H]1O[C@H](CO)[C@@H](O)[C@H](N)[C@H]1O [amikacin]
K. pneumoniae (KP)
  Susceptible: 58%
K. pneumoniae (KP); Klebsiella pneumoniae
  MIC50: 16 µg/mL (≈ 27.3 µM)
  MIC90: 64 µg/mL (≈ 109 µM)
Rat kidney [1]
  apparent relative nephrotoxicity (ranking): Neomycin≈Gentamicin>Tobramycin>Apramycin≈Paromomycin>Amikacin
Rat kidney [2]; 10 mg/kg
  Histopathology score (0 to 5 Scale): Casts: 0 +/− 0
  Histopathology score (0 to 5 Scale): Dilation: 0.2 +/− 0.4
  Histopathology score (0 to 5 Scale): Inflammation: 0.4 +/− 0.5
  Histopathology score (0 to 5 Scale): Regeneration: 0.2 +/− 0.4
Rat kidney [2]; 30 mg/kg
  Histopathology score (0 to 5 Scale): Casts: 0 +/− 0
  Histopathology score (0 to 5 Scale): Dilation: 0 +/− 0
  Histopathology score (0 to 5 Scale): Inflammation: 0.4 +/− 0.5
  Histopathology score (0 to 5 Scale): Regeneration: 0.2 +/− 0.4
Rat kidney [2]; 100 mg/kg
  Histopathology score (0 to 5 Scale): Casts: 0 +/− 0
  Histopathology score (0 to 5 Scale): Dilation: 0.2 +/− 0.4
  Histopathology score (0 to 5 Scale): Inflammation: 0.6 +/− 0.5
  Histopathology score (0 to 5 Scale): Regeneration: 0.6 +/− 0.5
Rat kidney [2]; 300 mg/kg
  Histopathology score (0 to 5 Scale): Casts: 0 +/− 0
  Histopathology score (0 to 5 Scale): Dilation: 1.2 +/− 0.8
  Histopathology score (0 to 5 Scale): Inflammation: 1.2 +/− 0.4
  Histopathology score (0 to 5 Scale): Regeneration: 1.4 +/− 0.5
Enterobacter spp. (EB)
  Susceptible: 93%
Enterobacter spp. (EB); Enterobacter
  MIC50: 4 µg/mL (≈ 6.83 µM)
  MIC90: 16 µg/mL (≈ 27.3 µM)
P. aeruginosa (PA)
  Susceptible: 94%
P. aeruginosa (PA); Pseudomonas aeruginosa
  MIC50: 4 µg/mL (≈ 6.83 µM)
  MIC90: 16 µg/mL (≈ 27.3 µM)
[3]
  overall sensitivity (S): 77.0%
E. coli (EC)
  Susceptible: 91%
E. coli (EC); Escherichia coli
  MIC50: 4 µg/mL (≈ 6.83 µM)
  MIC90: 16 µg/mL (≈ 27.3 µM)
Hearing function
  clinical observations, body weights, physical examinations, macroscopic observations: no vehicle or positive control article-related changes in any dose group
Hearing function; male, Crl:HA (Albino Hartley), 75 mg/kg, 14 days
  number of animals with hearing loss: 1 of 6
Hearing function; male, Crl:HA (Albino Hartley), 150 mg/kg, 14 days
  number of animals with hearing loss: 2 of 6
Hearing function; male, Crl:HA (Albino Hartley), 300 mg/kg/day, 14 days
  ABR threshold shift: > 15 dB
Hearing function; male, Crl:HA (Albino Hartley), sc, 300 mg/kg, 14 days
  hearing loss (ABR threshold changes): hearing losses from moderate at 4 kHz, to severe at 10 kHz, and to profound at 20 kHz
Cochlear hair cells; 75 mg/kg/day
  animals with minimal loss of outer hair cells: 3/6
Cochlear hair cells; 150 mg/kg/day
  animals with minimal loss of outer hair cells: 3/6
Cochlear hair cells; 300 mg/kg/day
  animals with large loss of outer hair cells: All animals
  animals with some loss of inner hair cells: 3/6
A. baumannii (AB)
  Susceptible: 82%
A. baumannii (AB); Acinetobacter baumannii
  MIC50: 8 µg/mL (≈ 13.7 µM)
  MIC90: 64 µg/mL (≈ 109 µM)
